Measurements published in patent publication US20230149355A1, “COMPOSITIONS AND METHODS FOR MODULATING TRP CHANNEL ACTIVITY” (priority 2020, published 2023).

What was measured:
[1] = tested on: vagal sensory neurons; assay: In vivo calcium imaging of vagal sensory ganglia after microgavage; set-up: species or system zebrafish
Method: For delivering bacterial or chemicals specifically to the intestine, the established microgavage technique (Cocchiaro and Rawls, 2013) was adopted. Zebrafish were anesthetized with 1 mg/mL α-Bungarotoxin (α-BTX) and the gavage procedure was performed as previously described using microinjection station (Cocchiaro and Rawls, 2013). For bacteria gavage experiments, 1 ml of overnight bacterial culture was harvested, pelleted, washed with PBS and resuspended in 100 ul PBS.˜8 nl was then delivered into the zebrafish intestine using microgavage. The gavaged zebrafish was then transferred into egg water and mounted in 1% LMA for imaging. For chemical gavage experiments, ˜8 nl of AITC (100 mM), indole (1 mM) and IAld (1 mM) was gavaged into the intestine.
Tg(neurod1:Gcamp6f); Tg(neurod1:TagRFP) zebrafish were used to record vagal sensory ganglia calcium activity in vivo. Zebrafish were anesthetized with 1 mg/mL α-Bungarotoxin (α-BTX) and gavaged with chemical compounds or bacteria as described (Naumann et al., 2016). Zebrafish larvae were mounted in 1% LMA and imaged under a Zeiss 780 upright confocal microscope. Z-stack images of the entire vagal ganglia were collected as serial images at 10 mins/frame and processed in FIJI. Individual vagal sensory neurons were identified and the Gcamp6f to TagRFP fluorescence ratios of individual vagal sensory neurons were calculated.

[2] = target: human TRPA1 (Homo sapiens, UniProt O75762); assay: Ca2+ influx (Calcium 6 fluorescence) in human TRPA1 expressing HEK-293T cells; assay type: cell-based
Method: HEK-293T cells were cultured in DMEM (Thermofisher Scientific, Waltham, Mass.) and supplemented with 10% fetal bovine serum (FBS) (Thermofisher Scientific), penicillin (100 units/mL) and streptomycin (0.1 mg/mL). Cells were plated on 100 mm tissue culture plates coated with poly-D-lysine (Sigma Aldrich, Saint Louis, Mo.) and grown to ˜60% confluence. The cells were transiently transfected for 16-24 hours with either human or mouse orthologs of TRPA1 using Fugene 6 transfection reagents and Opti-MEM (Thermofisher Scientific) according to the manufacturer's protocol. Subsequently, cells were trypsinized, re-suspended and re-plated onto poly-D-lysine coated 96-well plates (Krystal black walled plates, Genesee Scientific) at 5×10^5 cells/mL (100 μL/well) and allowed to grow for another 16-20 hrs prior to the experiments. Cells were maintained as monolayers in a 5% CO2 incubator at 37° C.
Measurements of changes in intracellular Ca^2+ concentrations ([Ca^2+]i) were performed as described previously (Caceres et al., 2017). In brief, cells in 96-well plates were loaded with Calcium 6, a no-wash fluorescent indicator, for 1.5 hrs (Molecular Devices, San Jose, Calif.) and then transferred to a FlexStation III benchtop scanning fluorometer chamber (Molecular Devices). Fluorescence measurements in the FlexStation were performed at 37° C. (Ex:485 nm, Em: 525 nm at every 1.8 s). After recording baseline fluorescence, agonists (indole, IAld, cinnamaldehyde) were added and fluorescence was monitored for a total of 60 s. […] The change in fluorescence was measured as Fmax-F0, where Fmax is the maximum fluorescence and F0 is the baseline fluorescence measured in each well.

[3] = tested on: human ileum; assay: Amperometric measurement of 5-HT secretion, human small intestine; conditions: 10 mM Indole
Excerpt: These experiments using C57BL/6J mice were approved by the Flinders University Animal Welfare Committee (number 965-19) and human ileum tissue was collected from resected small and large intestine from patients that gave written informed consent under the approval of the Southern Adelaide Clinical Human Research Ethics Committee (number 50.07) as previous (Sun et al., 2019a). Mice were euthanized at 8 to 12 weeks by isoflurane overdose followed by cervical dislocation. The duodenum was removed and placed in Krebs solution oxygenated with 95% O2, 5% CO2. A midline incision was made along the duodenum to create a flat sheet, the section was pinned with the mucosal side up in an organ bath lined with Sylgard and containing oxygenated Krebs solution. Serotonin release was measured using amperometry. A carbon-fibre electrode (5-μm diameter, ProCFE; Dagan Corporation, Minneapolis, Minn.), was lowered above the mucosa and 400 mV potential was applied to the electrode causing oxidation of serotonin (Zelkas et al., 2015). […] The change in amplitude due to serotonin oxidation was recorded using an EPC-10 amplifier and Pulse software (HEKA Electronic, Lambrecht/Pfalz, Germany), and samples at 10 kHz and low-pass filtered at 1 kHz. Data was assessed as peak current during each treatment. Data was analyzed comparing all groups using one-way ANOVA with Tukey's post-hoc test. […]

Chain of human TRPA1 (O75762 whole entry): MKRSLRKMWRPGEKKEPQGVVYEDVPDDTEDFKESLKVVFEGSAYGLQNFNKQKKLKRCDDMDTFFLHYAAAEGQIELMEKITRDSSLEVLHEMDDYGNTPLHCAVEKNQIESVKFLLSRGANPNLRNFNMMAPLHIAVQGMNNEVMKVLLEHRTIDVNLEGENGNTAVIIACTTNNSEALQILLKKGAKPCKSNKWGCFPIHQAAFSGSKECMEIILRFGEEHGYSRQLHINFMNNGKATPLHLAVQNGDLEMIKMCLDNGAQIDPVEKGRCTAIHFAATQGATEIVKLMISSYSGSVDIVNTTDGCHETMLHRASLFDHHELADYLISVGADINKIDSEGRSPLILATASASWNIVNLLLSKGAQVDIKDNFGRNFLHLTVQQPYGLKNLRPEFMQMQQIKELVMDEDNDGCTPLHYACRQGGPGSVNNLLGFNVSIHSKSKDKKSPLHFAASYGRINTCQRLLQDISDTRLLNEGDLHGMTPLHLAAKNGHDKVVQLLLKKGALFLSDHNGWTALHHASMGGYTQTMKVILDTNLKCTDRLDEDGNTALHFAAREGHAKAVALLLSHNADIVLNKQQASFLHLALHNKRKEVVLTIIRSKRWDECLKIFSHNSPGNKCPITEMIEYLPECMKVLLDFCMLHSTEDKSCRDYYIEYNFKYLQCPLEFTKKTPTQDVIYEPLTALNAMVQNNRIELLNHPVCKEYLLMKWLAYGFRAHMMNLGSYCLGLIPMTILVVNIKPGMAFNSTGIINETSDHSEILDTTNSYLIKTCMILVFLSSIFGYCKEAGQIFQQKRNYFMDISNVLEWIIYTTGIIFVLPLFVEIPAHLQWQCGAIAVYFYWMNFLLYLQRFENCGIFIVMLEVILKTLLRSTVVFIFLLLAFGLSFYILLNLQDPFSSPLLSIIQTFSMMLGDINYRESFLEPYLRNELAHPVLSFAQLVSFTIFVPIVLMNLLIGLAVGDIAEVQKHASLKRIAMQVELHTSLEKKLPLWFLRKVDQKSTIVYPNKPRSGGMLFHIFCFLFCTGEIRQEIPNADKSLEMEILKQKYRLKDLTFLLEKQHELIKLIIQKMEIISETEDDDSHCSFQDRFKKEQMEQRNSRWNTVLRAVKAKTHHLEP

c1ccc2[nH]ccc2c1 [Indole]
Vagal sensory neuron activation in larvae lacking EECs ([1]; EEC-ablated zebrafish, enteric indole): abrogated
Gcamp6f fluorescence in a subset of vagal sensory neurons ([1]; WT, enteric microgavage ~8 nl, AITC 100 mM, indole 1 mM, IAld 1 mM): increased
Activation of human TRPA1 receptor transfected into HEK cells [2]: activated
EC50 [2]: 88.7 µM
TRPA1 agonist efficacy ([2]; efficiency comparable to cinnamaldehyde (CAD)): full TRPA1 agonist activity
5-HT secretion in human ileum [3]: significant increase
